Data from PubChem BioAssay (NCI).
“And” between values parts separate entries of the source, which are not always exact repeats. Identical values can stand only once.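 48-hour exposure; five concentrations; linearly interpolated endpoints. GI50 marks 50% less growth. The concentration for full growth arrest is given as TGI.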

Assays:
Assay in all cases: growth of human tumour cells (NCI), 48 h
M14 melanoma = test system: M14 melanoma
TK-10 renal = test system: TK-10 renal
U251 CNS = test system: U251 CNS
786-0 renal = test system: 786-0 renal
OVCAR-8 ovarian = test system: OVCAR-8 ovarian
UO-31 renal = test system: UO-31 renal
UACC-62 melanoma = test system: UACC-62 melanoma
MDA-MB-231 breast = test system: MDA-MB-231 breast
OVCAR-5 ovarian = test system: OVCAR-5 ovarian
SK-MEL-5 melanoma = test system: SK-MEL-5 melanoma

| Compound | GI50 (M14 melanoma) | TGI (M14 melanoma) | GI50 (TK-10 renal) | TGI (TK-10 renal) [µM] | GI50 (U251 CNS) | TGI (U251 CNS) [µM] | GI50 (786-0 renal) | TGI (786-0 renal) | GI50 (OVCAR-8 ovarian) | TGI (OVCAR-8 ovarian) [µM] | GI50 (UO-31 renal) | TGI (UO-31 renal) | GI50 (UACC-62 melanoma) | TGI (UACC-62 melanoma) | GI50 (MDA-MB-231 breast) | TGI (MDA-MB-231 breast) | GI50 (OVCAR-5 ovarian) | TGI (OVCAR-5 ovarian) [µM] | GI50 (SK-MEL-5 melanoma) | TGI (SK-MEL-5 melanoma) |
| --- | --- | --- | --- | --- | --- | --- | --- | --- | --- | --- | --- | --- | --- | --- | --- | --- | --- | --- | --- | --- |
| N#C/C(=C\c1ccccn1)c1nc2ccccc2o1 | 30.7 µM | > 100 µM | 50.3 µM | > 100 | 21.5 µM | 49.8 | 35.3 µM | > 100 µM | 36.2 µM | > 100 | 18.8 µM | 59.7 µM | 21.3 µM | 46.2 µM | 27.9 µM | > 100 µM | 31.9 µM | > 100 | 18 µM | 43 µM |
| Cc1cc(N)c2cc(NC(=O)/C=C\c3ccccc3Cl)ccc2n1 | 0.748 µM | 2.02 µM | 2.11 µM | 3.69 | 0.269 µM | 0.724 | 0.924 µM | 2.42 µM | 1.61 µM | 3.12 | 1.78 µM | 3.22 µM | 1.05 µM | 2.49 µM | 1.21 µM | 2.47 µM | 1.33 µM | 2.69 | 1.46 µM | 2.8 µM |
| CC(C)C[C@H](NC(=O)[C@@H](N)Cc1cccc2ccccc12)B(O)O | 0.206 µM and 0.0374 µM |  | 0.439 µM |  | 0.392 µM |  | 0.207 µM |  | 1.62 µM |  | 0.739 µM |  | 0.425 µM | 1.28 µM and 0.148 µM | 0.798 µM |  | 0.174 µM |  | 0.176 µM |  |
| Cc1nc2sc(C(=O)Nc3cccc4c3OCCO4)c(N)c2cc1C(C)O (stereo not given) | 3.01 µM | > 100 µM | > 100 µM | > 100 | 4.66 µM | > 100 | 5 µM | > 100 µM | 6.48 µM | > 100 | 7.3 µM | > 100 µM | 2.97 µM | > 100 µM | 36.3 µM | > 100 µM | 43.2 µM | > 100 | 4.82 µM | > 100 µM |
| O=C1/C(=C/c2ccc([N+](=O)[O-])s2)Oc2ccc(Br)cc21 | 0.423 µM | 1.9 µM | 0.389 µM | 4.66 | 0.211 µM | 0.482 | 0.565 µM | 4.84 µM | 0.37 µM | > 100 | 0.166 µM | 0.346 µM | 0.297 µM | 0.963 µM | 0.201 µM | 0.436 µM | 1.07 µM | 2.47 | 0.268 µM | 0.805 µM |
| O=[N+]([O-])c1cc2c(ccc3ccccc32)o1 | 0.173 µM | 0.472 µM | 1.82 µM | 7.43 | 0.835 µM | 5.62 | 0.72 µM | 3.63 µM | 0.55 µM | 5.83 | 0.403 µM | 2.82 µM | 0.426 µM | 1.72 µM | 0.442 µM | 2.89 µM | 1.53 µM | 12.6 | 0.141 µM | 0.296 µM |
| C=CCC(NCc1ccccc1)c1cn(C(=O)OCC)c2ccccc12 (stereo not given) | 18.6 µM | 39.2 µM | 16.5 µM | 36.6 | 19.2 µM | 39.3 | 18.7 µM | 38.8 µM | 24.1 µM | 61.1 | 30.4 µM | > 100 µM | 22.6 µM | 50.6 µM | 18.2 µM | 44.1 µM | 16 µM | 44.6 | 13.9 µM | 28 µM |
| O=C1C=CC(=O)N1c1ccc2ccccc2c1 | 14.5 µM | 28.4 µM | 6.4 µM | 19.1 | 17.8 µM | 33.8 | 17.2 µM | 31.6 µM | 19.2 µM | 42.3 | 12.4 µM | 25.1 µM | 16.1 µM | 29.8 µM | 16.1 µM | 33 µM | 17.9 µM | 34 | 16.4 µM | 30.4 µM |
| COc1cccc(/C=C2\COc3ccc(O)c(O)c3C2=O)c1OC | 2.56 µM | 9.3 µM | 2.36 µM | 8.19 | 2 µM | 10.5 | 1.89 µM | 5.62 µM | 2.76 µM | 20.9 | 1.1 µM | 2.4 µM | 1.8 µM | 4.53 µM | 3.32 µM | 13.4 µM | 3.51 µM | 13.6 | 2.05 µM | 4.3 µM |
| CCOC(=O)CCC(NC(=O)c1ccc(Oc2nc3cc(N)cc(N)c3nc2-c2ccccc2)cc1)C(=O)OCC (stereo not given) | 40 µM | > 100 µM | > 100 µM | > 100 | > 100 µM | > 100 | 89 µM | > 100 µM | 38.2 µM | > 100 | 48.7 µM | > 100 µM | 16.1 µM | 31 µM | 11.3 µM | 32.6 µM | 96.8 µM | > 100 | 18 µM | 53.8 µM |
| Nc1ncnc2occ(-c3ccc(NC(=O)Nc4cccc(C(F)(F)F)c4)cc3)c12 | 3.2 µM | 9.19 µM | 2.9 µM | 11.8 | 5.27 µM | 16.5 | 4.46 µM | 10 µM | 2.85 µM | 8.26 | 2.88 µM | 11 µM | 3.02 µM | 6.54 µM | 5.8 µM | 16.4 µM | 5.5 µM | 13.3 | 3.06 µM | 6.21 µM |
| CC12CC(Br)(Br)C(=O)C3C1CCCC32 |  | 10.1 µM |  | 12.5 |  | 25.9 |  | 9.32 µM |  | 12.7 |  | 15 µM |  | 19.7 µM |  | 7.62 µM |  | 32.1 |  | 17.5 µM |
| Cc1nc2ccccc2c(/C=C/c2ccc(F)cc2)c1C(=O)/C=C/c1ccccc1 | 2.87 µM | 9.26 µM | 4.05 µM | > 100 | 1.74 µM | 3.18 | 2.03 µM | 4.36 µM | 2.62 µM | 7.75 | 1.29 µM | 2.67 µM | 1.86 µM | 4.04 µM | 2.24 µM | 6.33 µM | 1.92 µM | 3.95 | 2.11 µM | 5.12 µM |
| Cc1ncc2c(n1)CCC1=C2OS(=O)(=O)CC1N(C)C (stereo not given) |  | > 100 µM |  | > 100 |  | > 100 |  | > 100 µM |  | > 100 |  | > 100 µM |  | > 100 µM |  | > 100 µM |  | > 100 |  | > 100 µM |
| CCOC(=O)c1ccc(N[C@@H]2c3cc4c(cc3C(c3cc(OC)c(O)c(OC)c3)[C@H]3C(=O)OCC32)OCO4)cc1 (stereo not given in full) | 0.353 µM | 4.32 µM | 5 µM | 11.3 | 0.203 µM | 3.27 | 0.199 µM and 0.492 µM | 0.66 µM and 2.12 µM | 0.479 µM | 6.49 | 0.394 µM | 0.982 µM and 3.4 µM | 0.382 µM | 4.08 µM |  | 4.76 µM | 0.646 µM | 6.16 | 0.379 µM | 2.95 µM |
| COc1cc(/C=C2\CC3C4CC=C5C[C@@H](N6CCCC6)CC[C@]5(C)C4CC[C@]3(C)[C@H]2OC(C)=O)ccc1OCCCn1ccnc1 (stereo not given in full) | 0.304 µM | 0.752 µM | 0.479 µM | 1.48 | 0.0845 µM | 0.164 | 0.369 µM | 1.38 µM | 0.774 µM | 2.79 | 2.01 µM | > 50 µM | 0.63 µM | 2.26 µM | 0.404 µM | 1.01 µM | 7.15 µM | 15.3 | 0.373 µM | 0.79 µM |
| O=C(Nc1ccc(Br)cc1)c1cc(Br)ccc1O | 1 µM and 2.13 µM | 7.07 µM and 18.2 µM | 0.379 µM and 1.56 µM | > 22.1 | 0.417 µM and 0.682 µM | > 100 | 0.504 µM and 1.4 µM | 2.84 µM and 4.74 µM | 0.554 µM and 2.65 µM | > 82.8 | 0.247 µM and 0.767 µM | 2.16 µM and 9.78 µM | 0.235 µM and 0.371 µM | 1.07 µM and 2.25 µM | 0.622 µM and 1.43 µM | 3.22 µM and 7.06 µM | 1.75 µM and 4.79 µM | > 92.4 | 0.304 µM and 0.416 µM | 1.16 µM and 1.56 µM |
| CC(C)OC(=O)NNc1c(Cl)cc(Cl)cc1Cl |  | > 100 µM |  | > 100 |  | > 100 |  | > 100 µM |  | > 100 |  | > 100 µM |  | > 100 µM |  | > 100 µM |  | > 100 |  | 60.5 µM |
| CC(=O)OC1C(C)OC(Oc2c(-c3ccc(O)cc3)oc3cc(O)cc(O)c3c2=O)C(O)C1OC(C)=O (stereo not given) | 33.5 µM | > 100 µM | 31.9 µM | > 90.8 | 32.1 µM | > 100 | 48.2 µM | > 100 µM | 29 µM | > 84.9 | 39.3 µM | > 100 µM | 21.4 µM | > 60.5 µM | 21.1 µM | 63.7 µM | > 100 µM | > 100 | 17.4 µM | 39.9 µM |
| COc1cccc(C2=C(c3cn(C)c4c(C)cccc34)C(=O)NC2=O)c1 | > 25 µM | > 25 µM | > 25 µM | > 25 | 14.9 µM | > 25 | 15.8 µM | > 25 µM | > 25 µM | > 25 | > 20.2 µM | > 25 µM | > 22.1 µM | > 25 µM | 24.5 µM | > 25 µM | > 25 µM | > 25 | 21.5 µM | > 25 µM |
| O=C1C2C3C=CC(C2C(=O)N1CN1CCOCC1)C1C2C(=O)N(CN4CCOCC4)C(=O)C2C31 (stereo not given) |  | > 57.2 µM |  | > 93.4 |  | > 63.2 |  | > 60.9 µM |  | > 69.2 |  | > 84.6 µM |  | > 63 µM |  | > 100 µM |  | > 92.7 |  | > 58 µM |
